Each structure is given as a SMILES string. Where two headings read alike, the source gives them in different places.

Assay [1] concerns Granulome. The assay is described as follows: Cotton pellet granuloma test (method of Meier et al.). Type of assay: in vivo. An excerpt: Ein weiterer Nachweis der starken entzündungshemmenden Wirkung der erfindungsgemäßen Verbindungen erfolgte mit Hilfe des Granulomwattekügelchenversuches, welcher im wesentlichen wie von R. Meier und Mitarbeitern, Experientia, 6 [1950], 1469 beschrieben durchgeführt wurde. Bei diesem Versuch wurden Granuloma durch Einsetzen eines Wattekügelchens in den intraskapularen Bereich des Versuchtieres gebildet. Die Versuchsergebnisse sind in der folgenden Tabelle 11 zusammengestellt.

Assay [2] concerns Carraghenin-Ödem. Nature of the assay: Carrageenan-induced oedema test in rats (method of Winter et al.). The class given is in vivo. The note with it: Ratten. The text has this: Die entzündungshemmende Wirkung wurde an Hand des Versuches mit dem von Carraghenin hervorgerufenen beziehungsweise induzierten Ödem (Carraghenin-Ödem) an Ratten, welcher im wesentlichen nach der Verfahrensweise von C. A. Winter und Mitarbeitern, J. Pharm. Expt. Ther. […] durchgeführt wurde, bewertet. Die Ergebnisse dieser Versuche sind in der folgenden Tabelle I zusammengestellt.

Assay [3] has as its system durch das Reizmittel hervorgerufene Unterleibsschmerzkrümmungen. Nature of the assay: Writhing test in mice (method of Wilkin et al.). The class given is in vivo, Mäusen. The note with it: Mäuse; for ED50: Mus musculus, po, read-out: ED50 (Dosen, welche eine 50%ige Verminderung der Zusammenziehung herbeizuführen vermögen). On the procedure: Die schmerzlindernde Wirksamkeit wurde mit Hilfe des »Schmerzkrümmungsversuches« (»writhing test«) an Mäusen im wesentlichen nach der von Wilkin und Mitarbeitern in J. Pharm. Expt. Ther., 133 [1961 ], 409 beschriebenen Versuchsverfahrensweise bewertet. Repräsentative Versuche zeigten, daß die erfindungsgemäßen Verbindungen bei ihrer Verarbreichung in peroralen Dosen von etwa 30 bis 100 mg/kg gegenüber den Blindversuchen eine 50%ige Hemmung der durch das Reizmittel hervorgerufenen Unterleibsschmerzkrümmungen herbeiführten. Bei diesem Versuch zeigte sich, daß die schmerzlindernde Wirkung der erfindungsgemäßen Verbindung N-Acetyl-S-[D-2-(6'-methoxynaphth-2'-yl)-propionyl]-L-cystein (Verbindung der Beispiele 6 und 7) selbst 4 Stunden nach ihrer Verabreichung beträchtlich war.
(In general: In writhing tests, fewer writhes than in controls are read as antinociception.)

Take `COc1ccc2cc([C@H](C)C(=O)N[C@@H](CS)C(=O)O)ccc2c1` [Beispiel 4, N-[D-2-(6'-Methoxynaphth-2'-yl)-propionyl]-L-cystein]: the “Hemmung des Granulomes in %, bezogen auf die Blindversuche” value (from here on “Hemmung des Granulomes in %”) is reported as −24% in assay [1] (Perorale Dosis 40 mg/kg) and −35% in assay [1] (Perorale Dosis 80 mg/kg).
In the case of `COC(=O)[C@H](CS)NC(=O)[C@@H](C)c1ccc2cc(OC)ccc2c1` [Beispiel 2, N-[D-2-(6'-Methoxynaphth-2'-yl)-propionyl]-L-cysteinmethylester], the “Hemmung des Carraghenin-Ödemes in %, bezogen auf die Blindversuche” value (from here on “Hemmung des Carraghenin-Ödemes in %”) in assay [2] (Perorale Dosis 50 mg/kg) is −57%.
Consider `CCC1Cc2cc(CC(=O)N[C@@H](CS)C(=O)O)ccc2O1` (stereo partly drawn) [Beispiel 3, N-[2-(2'-Äthyl-2',3'-dihydrobenzofuran-5'-yl)-acetyl]-L-cystein], for which, in assay [1] (Perorale Dosis 40 mg/kg), the “Hemmung des Granulomes in %” value was −30%. For the same molecule, the “Hemmung des Carraghenin-Ödemes in %” value in assay [2] (Perorale Dosis 50 mg/kg) is −48%.
In general, ED50 refers to the dose at which the effect has come halfway, by size or by number of responders. In the case of `COc1ccc2cc([C@H](C)C(=O)SC[C@H](NC(C)=O)C(=O)O)ccc2c1` [Beispiel 6 beziehungs-weise 7, N-Acetyl-S-[D-2-(6'-methoxynaphth-2'-yl)-propionyl]-L-cystein], the figures for the “Hemmung des Granulomes in %” value in assay [1] (Perorale Dosis 40 mg/kg) and in assay [1] (Perorale Dosis 80 mg/kg) were −28% and −49%, respectively. The “Hemmung des Carraghenin-Ödemes in %” value in assay [2] (Perorale Dosis 3 mg/kg) is listed as −42%; in assay [2] (Perorale Dosis 6 mg/kg) it was −42%; in assay [2] (Perorale Dosis 12 mg/kg) it was −45%; in assay [2] (Perorale Dosis 24 mg/kg), −58%. Also, the “schmerzlindernde Wirkung” value in assay [3] (4 Stunden nach Verabreichung) was “beträchtlich”. The ED50 was found to be 25 mg/kg in assay [3] (0.5 h, nach 30 Minuten) and 10 mg/kg in assay [3] (4 h, nach 4 Stunden).

Values taken from EP0035641B1, “Cystein derivatives, process for their preparation and medicines containing them” (ALFA FARMACEUTICI S.p.A., priority 1980, dated 1981).
